Results taken from patent US9273040B2 (Merck Sharp & Dohme Corp., priority 2011, dated 2016).

Experiments:
[1] = target: T1, human Nav1.7 channels stably expressed in HEK 293 cells (Homo sapiens, UniProt Q15858); experiment: PatchXpress 7000 automated patch-clamp, sodium current; assay type: cell-based; conditions: 22° C., read-out: potency for the Nav 1.7 sodium ion channel (as measured by PatchXpress)
T1 construct: expressed in transfected cells
Procedure, shortened: (§1)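 IC50 values came from Hill-equation fits of rundown-corrected inhibition. PatchXpress recordings at 22° C held cells 20 mV negative to V0.5 inact and applied 10 Hz trains of 30 ms steps to −20 mV (Nav1.7) or an 8000 ms prepulse 7 mV positive to V0.5 inact. […]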

[2] = target: T2, human Nav1.5 channels stably expressed in HEK 293 cells (Homo sapiens, UniProt Q14524); experiment: as above; assay type: cell-based; conditions: selectivity over Nav1.5
T2 construct: expressed in transfected cells
T2 sequence (Q14524 whole entry): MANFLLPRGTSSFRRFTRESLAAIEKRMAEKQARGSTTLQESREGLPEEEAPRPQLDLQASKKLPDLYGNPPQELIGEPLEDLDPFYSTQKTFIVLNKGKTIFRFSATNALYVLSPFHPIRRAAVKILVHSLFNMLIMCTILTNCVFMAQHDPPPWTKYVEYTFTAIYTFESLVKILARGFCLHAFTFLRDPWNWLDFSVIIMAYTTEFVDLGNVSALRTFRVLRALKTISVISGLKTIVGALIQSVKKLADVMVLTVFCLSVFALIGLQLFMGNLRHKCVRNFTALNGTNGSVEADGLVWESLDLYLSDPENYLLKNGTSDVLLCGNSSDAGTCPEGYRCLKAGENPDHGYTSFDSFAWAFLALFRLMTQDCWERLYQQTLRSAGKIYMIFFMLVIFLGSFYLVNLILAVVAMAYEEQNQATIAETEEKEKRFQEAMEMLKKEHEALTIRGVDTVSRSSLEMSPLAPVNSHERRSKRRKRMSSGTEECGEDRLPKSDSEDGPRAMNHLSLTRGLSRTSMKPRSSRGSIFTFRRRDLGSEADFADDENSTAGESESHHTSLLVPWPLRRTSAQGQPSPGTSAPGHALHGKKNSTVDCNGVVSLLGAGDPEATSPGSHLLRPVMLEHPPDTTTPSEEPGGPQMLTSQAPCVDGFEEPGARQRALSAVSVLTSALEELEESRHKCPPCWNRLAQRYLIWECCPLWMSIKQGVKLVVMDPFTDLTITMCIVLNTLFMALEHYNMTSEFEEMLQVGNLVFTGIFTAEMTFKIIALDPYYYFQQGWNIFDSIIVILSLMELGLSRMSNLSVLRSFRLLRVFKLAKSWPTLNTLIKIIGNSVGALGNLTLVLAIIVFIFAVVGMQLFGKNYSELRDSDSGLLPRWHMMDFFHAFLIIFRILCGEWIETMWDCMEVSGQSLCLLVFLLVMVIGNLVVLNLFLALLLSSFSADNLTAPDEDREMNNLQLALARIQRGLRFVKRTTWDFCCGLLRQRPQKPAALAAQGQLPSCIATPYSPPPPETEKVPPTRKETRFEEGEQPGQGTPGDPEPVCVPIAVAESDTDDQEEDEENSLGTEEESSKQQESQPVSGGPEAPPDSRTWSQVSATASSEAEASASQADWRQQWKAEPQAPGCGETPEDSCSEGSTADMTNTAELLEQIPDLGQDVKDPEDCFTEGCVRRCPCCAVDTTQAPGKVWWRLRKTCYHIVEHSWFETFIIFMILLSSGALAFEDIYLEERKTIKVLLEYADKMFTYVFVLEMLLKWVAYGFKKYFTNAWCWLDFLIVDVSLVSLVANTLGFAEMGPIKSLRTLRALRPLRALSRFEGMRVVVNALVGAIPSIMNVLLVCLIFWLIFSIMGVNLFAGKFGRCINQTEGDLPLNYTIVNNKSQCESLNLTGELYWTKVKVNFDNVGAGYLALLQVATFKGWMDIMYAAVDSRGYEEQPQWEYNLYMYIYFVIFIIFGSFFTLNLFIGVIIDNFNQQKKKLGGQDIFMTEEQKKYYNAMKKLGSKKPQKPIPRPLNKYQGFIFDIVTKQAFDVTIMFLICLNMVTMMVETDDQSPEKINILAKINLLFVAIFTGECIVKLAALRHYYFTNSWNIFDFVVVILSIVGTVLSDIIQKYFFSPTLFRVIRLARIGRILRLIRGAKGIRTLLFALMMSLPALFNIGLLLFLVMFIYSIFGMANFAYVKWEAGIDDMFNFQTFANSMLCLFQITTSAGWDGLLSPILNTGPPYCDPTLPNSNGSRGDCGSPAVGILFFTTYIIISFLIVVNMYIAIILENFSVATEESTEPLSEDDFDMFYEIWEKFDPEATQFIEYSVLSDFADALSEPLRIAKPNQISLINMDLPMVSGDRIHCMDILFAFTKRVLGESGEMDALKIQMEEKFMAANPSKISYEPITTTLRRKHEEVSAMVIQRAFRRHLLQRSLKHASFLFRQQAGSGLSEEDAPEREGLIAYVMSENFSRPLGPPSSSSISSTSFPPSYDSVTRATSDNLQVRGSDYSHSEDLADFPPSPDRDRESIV
Procedure, shortened: as §1

T1 sequence (Q15858 whole entry): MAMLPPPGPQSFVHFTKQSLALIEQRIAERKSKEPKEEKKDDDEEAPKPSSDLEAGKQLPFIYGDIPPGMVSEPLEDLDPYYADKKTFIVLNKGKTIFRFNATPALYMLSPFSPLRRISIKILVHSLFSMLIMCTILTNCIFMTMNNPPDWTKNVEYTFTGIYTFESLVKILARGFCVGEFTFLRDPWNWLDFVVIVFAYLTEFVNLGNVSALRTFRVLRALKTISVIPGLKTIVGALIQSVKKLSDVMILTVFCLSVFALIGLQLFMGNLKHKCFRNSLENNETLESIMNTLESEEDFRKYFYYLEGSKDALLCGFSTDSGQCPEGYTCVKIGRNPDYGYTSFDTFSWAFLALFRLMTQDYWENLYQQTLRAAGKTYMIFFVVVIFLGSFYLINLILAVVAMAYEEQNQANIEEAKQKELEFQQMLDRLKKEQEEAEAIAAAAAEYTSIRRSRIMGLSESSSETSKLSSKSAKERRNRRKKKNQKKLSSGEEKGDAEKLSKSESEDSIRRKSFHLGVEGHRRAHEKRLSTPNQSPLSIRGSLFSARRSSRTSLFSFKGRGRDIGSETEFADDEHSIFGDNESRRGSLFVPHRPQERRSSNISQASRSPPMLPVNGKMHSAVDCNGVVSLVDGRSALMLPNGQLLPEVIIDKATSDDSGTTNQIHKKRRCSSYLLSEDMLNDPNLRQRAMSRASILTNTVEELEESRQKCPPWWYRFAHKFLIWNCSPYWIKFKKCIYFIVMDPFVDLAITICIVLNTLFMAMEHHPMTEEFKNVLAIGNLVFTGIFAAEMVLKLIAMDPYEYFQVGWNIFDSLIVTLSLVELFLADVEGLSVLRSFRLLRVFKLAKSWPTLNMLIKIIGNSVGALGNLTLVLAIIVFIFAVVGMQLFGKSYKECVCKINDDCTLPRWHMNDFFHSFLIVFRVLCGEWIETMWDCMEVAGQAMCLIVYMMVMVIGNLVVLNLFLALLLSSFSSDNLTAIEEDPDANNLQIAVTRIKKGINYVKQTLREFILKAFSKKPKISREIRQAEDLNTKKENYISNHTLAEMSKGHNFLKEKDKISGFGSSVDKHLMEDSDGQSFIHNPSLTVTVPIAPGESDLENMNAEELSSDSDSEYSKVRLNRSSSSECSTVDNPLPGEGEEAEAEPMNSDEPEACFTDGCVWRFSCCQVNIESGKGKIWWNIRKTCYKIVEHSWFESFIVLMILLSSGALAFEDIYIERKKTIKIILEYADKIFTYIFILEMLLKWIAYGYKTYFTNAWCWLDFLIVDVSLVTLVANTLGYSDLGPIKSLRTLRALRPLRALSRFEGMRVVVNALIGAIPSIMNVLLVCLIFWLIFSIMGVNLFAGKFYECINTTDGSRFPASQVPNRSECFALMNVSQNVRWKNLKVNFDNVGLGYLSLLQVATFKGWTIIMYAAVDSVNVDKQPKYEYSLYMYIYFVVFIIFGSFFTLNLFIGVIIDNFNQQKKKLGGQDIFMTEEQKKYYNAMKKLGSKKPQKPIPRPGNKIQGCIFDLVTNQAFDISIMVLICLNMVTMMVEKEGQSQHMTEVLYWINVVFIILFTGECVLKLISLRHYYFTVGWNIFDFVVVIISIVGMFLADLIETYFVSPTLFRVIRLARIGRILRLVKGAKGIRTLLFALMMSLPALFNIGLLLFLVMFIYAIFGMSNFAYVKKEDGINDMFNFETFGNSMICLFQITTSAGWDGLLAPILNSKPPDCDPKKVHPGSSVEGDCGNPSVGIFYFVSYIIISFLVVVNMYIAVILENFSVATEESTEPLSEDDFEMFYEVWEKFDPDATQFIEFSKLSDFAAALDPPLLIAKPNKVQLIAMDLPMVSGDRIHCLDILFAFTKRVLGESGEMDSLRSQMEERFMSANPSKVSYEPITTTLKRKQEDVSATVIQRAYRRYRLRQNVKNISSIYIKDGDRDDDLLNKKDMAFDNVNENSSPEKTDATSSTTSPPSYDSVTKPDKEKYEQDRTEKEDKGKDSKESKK

Structure (SMILES) | IC50 [1] | ratio of Nav 1.5:Nav 1.7 potency, determined by PatchXpress measurement [2]
O=c1oc2cc(S(=O)(=O)Nc3ncns3)c(F)cc2n1C1CC2(COC2)Oc2ccccc21 (centres unmarked) [Compound 39-4, 3-(3,4-dihydrospiro[chromene-2,3′-oxetan]-4-yl)-5-fluoro-2-oxo-N-1,2,4-thiadiazol-5-yl-2,3-dihydro-1,3-benzoxazole-6-sulfonamide] | 312 nM | 58
C[C@@H](c1cccc2cncn12)n1c(=O)oc2cc(S(=O)(=O)Nc3nccs3)c(F)cc21 [Compound 43-17, 5-fluoro-3-[(1S)-1-imidazo[1,5-a]pyridin-5-ylethyl]-2-oxo-N-1,3-thiazol-2-yl-2,3-dihydro-1,3-benzoxazole-6-sulfonamide] | 621 nM | 48
C[C@H](c1cccc2c1CNCC2)n1c(=O)oc2cc(S(=O)(=O)Nc3nccs3)c(F)cc21 [Compound 43-15, 5-fluoro-2-oxo-3-[(1R)-1-(1,2,3,4-tetrahydroisoquinolin-8-yl)ethyl]-N-1,3-thiazol-2-yl-2,3-dihydro-1,3-benzoxazole-6-sulfonamide] | 80 nM | 147
O=c1oc2cc(S(=O)(=O)Nc3ncns3)c(F)cc2n1Cc1cccc2cncn12 [Compound 11-12, 5-fluoro-3-(imidazo[1,5-a]pyridin-5-ylmethyl)-2-oxo-N-1,2,4-thiadiazol-5-yl-2,3-dihydro-1,3-benzoxazole-6-sulfonamide] | 81 nM | 368
C[C@H](c1cccc2c1CNCC2)n1c(=O)oc2cc(S(=O)(=O)Nc3nccs3)ccc21 [Compound 42-1, (R)-2-oxo-3-(1-(1,2,3,4-tetrahydroisoquinolin-8-yl)ethyl)-N-(thiazol-2-yl)-2,3-dihydrobenzo[d]oxazole-6-sulfonamide] | 30 nM | 1017
Nc1cccc2c1CCCC2n1c(=O)oc2cc(S(=O)(=O)Nc3nccs3)c(F)cc21 (centres unmarked) [Compound 43-13, 3-(5-amino-1,2,3,4-tetrahydronaphthalen-1-yl)-5-fluoro-2-oxo-N-1,3-thiazol-2-yl-2,3-dihydro-1,3-benzoxazole-6-sulfonamide] | 405 nM | 74
C[C@H](c1ccccc1C#CCN)n1c(=O)oc2cc(S(=O)(=O)Nc3nccs3)c(F)cc21 [Compound 43-19, 3-{(1R)-1-[2-(3-aminoprop-1-yn-1-yl)phenyl]ethyl}-5-fluoro-2-oxo-N-1,3-thiazol-2-yl-2,3-dihydro-1,3-benzoxazole-6-sulfonamide] | 29 nM | 1267
C[C@H](c1ccccc1C#C[C@@H]1CCCN1)n1c(=O)oc2cc(S(=O)(=O)Nc3ncns3)c(F)cc21 [Compound 17-17, 5-fluoro-2-oxo-3-[(1R)-1-{2-[(2S)-pyrrolidin-2-ylethynyl]phenyl}ethyl]-N-1,2,4-thiadiazol-5-yl-2,3-dihydro-1,3-benzoxazole-6-sulfonamide] | 29 nM | 1034
C[C@H](c1ccccc1C#CC1(O)CCCC1)n1c(=O)oc2cc(S(=O)(=O)Nc3ncns3)c(F)cc21 [Compound 17-3, 5-fluoro-3-[(1R)-1-{2-[(1-hydroxycyclopentyl)ethynyl]phenyl}ethyl]-2-oxo-N-1,2,4-thiadiazol-5-yl-2,3-dihydro-1,3-benzoxazole-6-sulfonamide] | 172 nM | 97
O=c1oc2cc(S(=O)(=O)Nc3ncns3)c(F)cc2n1[C@H](CO)c1ccccc1 [Compound 13-12, 5-fluoro-3-[(1S)-2-hydroxy-1-phenylethyl]-2-oxo-N-1,2,4-thiadiazol-5-yl-2,3-dihydro-1,3-benzoxazole-6-sulfonamide] | 422 nM | > 71
C[C@H](c1ccccc1C#CC1(N)CC1)n1c(=O)oc2cc(S(=O)(=O)Nc3ncns3)c(F)cc21 [Compound 17-1, (R)-3-(1-(2-((1-aminocyclopropyl)ethynyl)phenyl)ethyl)-5-fluoro-2-oxo-N-(1,2,4-thiadiazol-5-yl)-2,3-dihydrobenzo[d]oxazole-6-sulfonamide] | 96 nM | 313
C[C@H](c1ccccc1I)n1c(=O)oc2cc(S(=O)(=O)Nc3ncns3)c(F)cc21 [Compound 16-3, (R)-5-Fluoro-3-(1-(2-iodophenyl)ethyl)-2-oxo-N-(1,2,4-thiadiazol-5-yl)-2,3-dihydrobenzo[d]oxazole-6-sulfonamide] | 69 nM | 272
C[C@H](c1cccc(-c2ccc(O)nc2)c1)n1c(=O)oc2cc(S(=O)(=O)Nc3ncns3)c(F)cc21 [Compound 28-4, 5-fluoro-3-{(1R)-1-[3-(6-hydroxypyridin-3-yl)phenyl]ethyl}-2-oxo-N-1,2,4-thiadiazol-5-yl-2,3-dihydro-1,3-benzoxazole-6-sulfonamide] | 107 nM | 181
O=c1oc2cc(S(=O)(=O)Nc3ncns3)c(F)cc2n1C1CCOc2ccc(F)cc21 (centres unmarked) [Compound 39-13, 5-fluoro-3-(6-fluoro-3,4-dihydro-2H-chromen-4-yl)-2-oxo-N-1,2,4-thiadiazol-5-yl-2,3-dihydro-1,3-benzoxazole-6-sulfonamide] | 112 nM | 295
Cn1cc2cccc(Cn3c(=O)oc4cc(S(=O)(=O)Nc5ncns5)c(F)cc43)c2n1 [Compound 11-11, 5-fluoro-3-[(2-methyl-2H-indazol-7-yl)methyl]-2-oxo-N-1,2,4-thiadiazol-5-yl-2,3-dihydro-1,3-benzoxazole-6-sulfonamide] | 490 nM | 81
NC1CCc2cccc(Cn3c(=O)oc4cc(S(=O)(=O)Nc5ncns5)ccc43)c2C1 (single isomer, unassigned) [Compound 23-10, (R or S)-3-[(7-amino-5,6,7,8-tetrahydronaphthalen-1-yl)methyl]-2-oxo-N-1,2,4-thiadiazol-5-yl-2,3-dihydro-1,3-benzoxazole-6-sulfonamide] | 179 nM | 167
O=c1oc2cc(S(=O)(=O)Nc3nccs3)c(F)cc2n1C1CCCc2ccc(Cl)nc21 (centres unmarked) [Compound 43-5, 3-(2-chloro-5,6,7,8-tetrahydroquinolin-8-yl)-5-fluoro-2-oxo-N-1,3-thiazol-2-yl-2,3-dihydro-1,3-benzoxazole-6-sulfonamide] | 416 nM | 202
NC1Cc2cccc(Cn3c(=O)oc4cc(S(=O)(=O)Nc5ncns5)ccc43)c2C1 (racemic) [Compound 23-9, (+/−)-3-[(2-amino-2,3-dihydro-1H-inden-4-yl)methyl]-2-oxo-N-1,2,4-thiadiazol-5-yl-2,3-dihydro-1,3-benzoxazole-6-sulfonamide] | 180 nM | 167
O=c1oc2cc(S(=O)(=O)Nc3ncns3)c(F)cc2n1[C@H]1CC2(CCC2)Oc2ccccc21 [Compound 39-16, 3-[(4S)-3,4-dihydrospiro[chromene-2,1′-cyclobutan]-4-yl]-5-fluoro-2-oxo-N-1,2,4-thiadiazol-5-yl-2,3-dihydro-1,3-benzoxazole-6-sulfonamide] | 53 nM | 149
Cc1cc2c(cc1S(=O)(=O)Nc1ncns1)oc(=O)n2[C@H](C)c1ccccc1 [Compound 38-3] | 43 nM | 37
C[C@H](c1cccc2ccncc12)n1c(=O)oc2cc(S(=O)(=O)Nc3ncns3)ccc21 [Compound 14-7, (R)-3-(1-(isoquinolin-8-yl)ethyl)-2-oxo-N-(1,2,4-thiadiazol-5-yl)-2,3-dihydrobenzo[d]oxazole-6-sulfonamide] | 40 nM | 749
NC1CCc2cccc(Cn3c(=O)oc4cc(S(=O)(=O)Nc5ncns5)c(F)cc43)c2C1 (racemic) [Compound 20-4, 3-((7-amino-5,6,7,8-tetrahydronaphthalen-1-yl)methyl)-5-fluoro-2-oxo-N-(1,2,4-thiadiazol-5-yl)-2,3-dihydrobenzo[d]oxazole-6-sulfonamide] | 179 nM | 167
O=c1oc2cc(S(=O)(=O)Nc3nccs3)c(F)cc2n1C1CC2(CCC2)Oc2ccc(Br)cc21 (centres unmarked) [Compound 43-10, 3-(6-bromo-3,4-dihydrospiro[chromene-2,1′-cyclobutan]-4-yl)-5-fluoro-2-oxo-N-1,3-thiazol-2-yl-2,3-dihydro-1,3-benzoxazole-6-sulfonamide] | 58 nM | 29
CC1(C)CC(n2c(=O)oc3cc(S(=O)(=O)Nc4ncns4)c(F)cc32)c2ccccc2O1 (centres unmarked) [Compound 39-7, 3-(2,2-dimethyl-3,4-dihydro-2H-chromen-4-yl)-5-fluoro-2-oxo-N-1,2,4-thiadiazol-5-yl-2,3-dihydro-1,3-benzoxazole-6-sulfonamide] | 218 nM | 137
Cc1n[nH]cc1-c1cccc([C@@H](C)n2c(=O)oc3cc(S(=O)(=O)Nc4nccs4)c(F)cc32)c1 [Compound 43-24, 5-fluoro-3-{(1R)-1-[3-(3-methyl-1H-pyrazol-4-yl)phenyl]ethyl}-2-oxo-N-1,3-thiazol-2-yl-2,3-dihydro-l,3-benzoxazole-6-sulfonamide] | 103 nM | 33
